Data reported in patent US20130345306A1, “IDENTIFICATION OF C3 COMPLEMENT MOLECULE AT THE SITE OF INJURY TO BLOOD VESSELS IN THE RETINA OF OXYGEN EXPOSED ANIMALS” (priority 2011, published 2013).
“Also recorded” adds a separate entry of the source.

Columns and labels:
[1] = system: rodent C3aR; details: cited from earlier work
[2] = system: murine oxygen-induced retinopathy (OIR); experiment: Murine OIR, SB290157 intraperitoneal just prior to 75% oxygen, preservation of capillary bed; assay type: in vivo, mouse; details: 2-5 mg/kg i.p. just prior to 75% oxygen DOL 7-12; vs sham saline injected oxygen-exposed litter mates
Method: Murine Model of Oxygen-Induced Retinopathy (OIR): In this regard we reported the role of active C3a in the OIR (15). C57BL/6J mice were obtained from Jackson Laboratories. After birth the litter of mice were nursed by their dam in a room air environment from day of life (DOL) 0 to DOL 6. On DOL 7 the litter were separated in half. One half were placed with their nursing dam in a custom made incubator from DOL 7 through DOL 12 ([…]) with the oxygen concentration maintained at 75% measured twice daily. The other half of the litter were raised in room air as controls. Dams were replaced every 24 hours in the incubator. […]
After a rinse, the retinas were permeabilized with 0.1% Triton X100 and stained with Alexa Fluor 488-conjugated isolectin GS-IB4, followed by blocking with 5% donkey serum. […] Images were obtained digitally with a fluorescence microscope and a digital camera. […]
For a given control half litter the areal extent of total destruction can be estimated, in a non-limiting example from the area extending from optic nerve to mid periphery of the retina. For the SB290157 treated animals the measured area of destruction can be estimated, in a non-limiting example from the area extending from optic nerve to mid periphery of the retina. […] The results of this experiment are measured in prevention of capillary loss. […]

[3] = system: new born mice; experiment: Murine OIR trial with progressively increased SB290157 dosage, observation for untoward reactions or side effects; assay type: in vivo, mouse; details: i.p. DOL 5; dosage increased from 2.5 to 5, 7.5, 10, 15, 25, 50 mgm/kg; 75% O2 DOL 7-12
Method: Standard O2 exposure 75% DOL 7-12; 3) Euthanasia at DOL17, followed by enucleation, removal of the retina and separation from the retina from underlying Pigment Epithelial layer. Flatmount and stain for vessels with IsoLectin was performed by incubating the preparation with goat AB followed by counter-staining with Rhodamine to bring out the presence of active C3a; 4)Microscopy at 2.5× and 40× for: capillary bed anatomy; presence of “ghost vessels” previously described; presence of cellular debris noted previously thought to be pieces of partially destroyed but not digested cell wall; destruction or absence of neurons and glial in the retina surrounding the Optic Nerve Head(from which major blood vessels exit undamaged at least as can be detected by the oxygen exposure); presence or absence of neovascular tufts (a late complication of oxygen damage). An additional trial with Intravitreal Injection will be performed as this paper is prepared.
MATERIALS & METHOD: Litters of black 6 new born mice were divided in half at birth. At DOL seven, one half of the litter were placed in an oxygen chamber maintained at 75%+/−2% oxygen till DOL 12. The oxygen exposed mice were maintained in room air until DOL 17. The control mice were raised in room air until DOL 17 when both halves were euthanized at DOL17. Eyes were enucleated and fixed in 4% paraformaldehyde at 4° C. overnight. […]

[4] = system: murine oxygen-induced retinopathy (OIR); experiment: Murine oxygen-induced retinopathy (OIR), SB290157 injected intraperitoneally on DOL 5, retinal vasculature pattern on DOL 17; assay type: in vivo; details: 1 mg/kg i.p. DOL 5
Method: litters of new born mice were divided into 4 groups. On Day of Life (DOL) 5, SB290157 1 mg per kilogram body weight is injected intraperitoneally into mice in Group 1 and Group 3; same volume solvent without SB290157 is injected intraperitoneally into mice in Group 2 and Group 4. Mice from group 1 and 2 are raised in room air all the time, but mice from group 3 and 4 are raised in room air till DOL 7 when they are transfer into 75% oxygen chamber and on DOL 12 they are returned into room air. On DOL 17, eyes are enucleated and retinas dissected after euthanasia. Retinas are then stained with Alexa Fluor 488 conjugated isolectin GS-IB4 and mounted on slide for vasculature pattern study.

[5] = target: human C3aR (Homo sapiens, UniProt Q16581); details: cited from earlier work
human C3aR, sequence (Q16581 whole entry): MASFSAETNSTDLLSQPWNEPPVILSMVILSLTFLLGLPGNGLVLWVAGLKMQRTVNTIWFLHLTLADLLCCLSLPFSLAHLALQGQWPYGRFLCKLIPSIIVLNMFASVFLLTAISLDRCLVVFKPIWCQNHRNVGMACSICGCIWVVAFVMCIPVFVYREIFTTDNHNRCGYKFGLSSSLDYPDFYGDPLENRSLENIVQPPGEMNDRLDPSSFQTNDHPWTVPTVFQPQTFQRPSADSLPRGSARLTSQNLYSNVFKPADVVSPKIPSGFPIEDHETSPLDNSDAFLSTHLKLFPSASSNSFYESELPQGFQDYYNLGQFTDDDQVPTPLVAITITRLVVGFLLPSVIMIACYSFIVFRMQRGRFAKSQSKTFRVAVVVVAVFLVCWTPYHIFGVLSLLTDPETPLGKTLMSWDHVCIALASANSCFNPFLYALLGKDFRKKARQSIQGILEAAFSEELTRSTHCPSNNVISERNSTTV

[6] = system: airway neutrophilia; details: in vivo; cited from earlier work
[7] = 75% oxygen DOL 7-12, DOL 17, vs solvent-injected oxygen-exposed group 4

In the case of `NC(N)=NCCC[C@H](NC(=O)COCC(c1ccccc1)c1ccccc1)C(=O)O` [SB290157], the C3a receptor blockade [1] is listed as “blocking”, the “preservation of capillary bed” value [2] is listed as “prevents the destruction of capillary bed; also recorded: preservation of capillary bed” and the “untoward reactions or side effects” value [3] is listed as “None were observed”. The “effect on murine OIR (conclusion)” value ([4]; 75% oxygen DOL 7-12) was “can attenuate murine OIR”, the “capillary damage in retinal whole mounts” value [4, 7] was “attenuated the damage to the capillary bed; also recorded: significantly less capillary damage” and the neovascularization tufts [4, 7] was “few to no vascular tufts; also recorded: less neovascularization tufts”. For the same molecule, the “retinal vasculature / toxicity to forming vascular tissue in room air raised mice” value ([4]; room air, DOL 17, vs solvent group 2) was “No evidence of toxicity to forming vascular tissue; also recorded: normal developing vasculature patterns without significant difference”, the C3a receptor blockade [5] was “blocking” and the “effect in airway neutrophilia” value [6] was “beneficial effects”.
